Laboratory results as given in PubChem BioAssay AID1963856 (Molecular Pharmacology Branch, DTP, NCI, 2024).

Test system: LG0567-F671-PDC KRAS tumor spheroid viability
Assay: Anticancer human tumor LG0567-F671-PDC patient-derived lung adenocarcinoma cell line growth inhibition [KRAS2]
Conditions: spheroids with HUVEC and MSC; for IC50: curve of first compound; for viability, T/C: stronger effect = lower value; active = viability on the fitted dose curve at most 10% of control; inactive = the rest
Summary of the method: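 Combination screen of spheroid viability in tumor-cell co-cultures with endothelial (HUVEC) and mesenchymal stem cell stroma. Each agent was tested in half-log dilutions, topping at clinical Cmax or at 10 microM without a known Cmax.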
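Note: drug exposure lasted seven days after spheroids formed for three days.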
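Throughout, for viability, T/C: 100% = DMSO vehicle control viability.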

CC(C)n1nc(-c2ccc3oc(N)nc3c2)c2c(N)ncnc21 + CNCc1ccccc1-c1csc(C(C)Nc2nc(C)nc3cc(OC)c(OC)cc23)c1
10.7 nM: IC50 (second compound 0.316 µM)
5.7 nM: IC50 (second compound 1 µM)
58.7 nM: IC50 (second compound 0.1 µM)
< 0.316 nM: IC50 (second compound 3.16 µM) | IC50 (second compound 10 µM)
inactive: viability, T/C (second compound 0.1 µM, first compound 0.000316 µM) 72.7% | viability, T/C (second compound 0.1 µM, first compound 0.001 µM) 76.2% | viability, T/C (second compound 0.1 µM, first compound 0.00316 µM) 65.5% | viability, T/C (second compound 0.1 µM, first compound 0.01 µM) 58.6% | viability, T/C (second compound 0.1 µM, first compound 0.0316 µM) 53.8% | viability, T/C (second compound 0.1 µM, first compound 0.1 µM) 47.3% | viability, T/C (second compound 0.316 µM, first compound 0.000316 µM) 70.3% | viability, T/C (second compound 0.316 µM, first compound 0.001 µM) 65.5% | viability, T/C (second compound 0.316 µM, first compound 0.00316 µM) 59% | viability, T/C (second compound 0.316 µM, first compound 0.01 µM) 49% | viability, T/C (second compound 0.316 µM, first compound 0.0316 µM) 42.6% | viability, T/C (second compound 0.316 µM, first compound 0.1 µM) 37.4% | viability, T/C (second compound 1 µM, first compound 0.000316 µM) 70.8% | viability, T/C (second compound 1 µM, first compound 0.001 µM) 73.6% | viability, T/C (second compound 1 µM, first compound 0.00316 µM) 52.5% | viability, T/C (second compound 1 µM, first compound 0.01 µM) 44.5% | viability, T/C (second compound 1 µM, first compound 0.0316 µM) 32.1% | viability, T/C (second compound 1 µM, first compound 0.1 µM) 23.2%
active: viability, T/C (second compound 3.16 µM, first compound 0.000316 µM) 0.52% | viability, T/C (second compound 3.16 µM, first compound 0.001 µM) 1.53% | viability, T/C (second compound 3.16 µM, first compound 0.00316 µM) 2.23% | viability, T/C (second compound 3.16 µM, first compound 0.01 µM) 0.27% | viability, T/C (second compound 3.16 µM, first compound 0.0316 µM) 10.3% | viability, T/C (second compound 3.16 µM, first compound 0.1 µM) 6% | viability, T/C (second compound 10 µM, first compound 0.000316 µM) 1.29% | viability, T/C (second compound 10 µM, first compound 0.001 µM) 0.51% | viability, T/C (second compound 10 µM, first compound 0.00316 µM) 0.14% | viability, T/C (second compound 10 µM, first compound 0.01 µM) 1.07% | viability, T/C (second compound 10 µM, first compound 0.0316 µM) 10.9% | viability, T/C (second compound 10 µM, first compound 0.1 µM) 0.33%
